For experiment [1], the target named is T1, Mouse EL (Mus musculus, UniProt Q9WVG5).
T1 construct: host or cells: not described for mouse EL
T1 sequence (Q9WVG5 21-500): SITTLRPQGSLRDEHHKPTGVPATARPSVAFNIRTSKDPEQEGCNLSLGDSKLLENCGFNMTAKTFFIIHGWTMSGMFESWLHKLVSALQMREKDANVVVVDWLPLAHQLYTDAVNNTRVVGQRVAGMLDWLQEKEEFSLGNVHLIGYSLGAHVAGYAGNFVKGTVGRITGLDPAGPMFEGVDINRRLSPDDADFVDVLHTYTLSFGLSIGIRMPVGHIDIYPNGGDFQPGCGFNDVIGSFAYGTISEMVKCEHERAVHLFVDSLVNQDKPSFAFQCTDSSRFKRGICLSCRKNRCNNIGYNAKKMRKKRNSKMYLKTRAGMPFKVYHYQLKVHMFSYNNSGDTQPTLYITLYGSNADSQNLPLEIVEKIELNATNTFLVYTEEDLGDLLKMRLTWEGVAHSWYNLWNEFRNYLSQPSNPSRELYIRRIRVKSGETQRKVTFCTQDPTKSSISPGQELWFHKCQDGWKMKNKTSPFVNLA
In words: Endothelial Lipase Assay, cell surface lipase activity (mouse). The experiment is classed as cell-based. The note with it: PLA1 substrate 10 μM, fluorescence reaction rate, several values in a cell are repeat determinations. In outline:
(§1)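 Cells expressing human or mouse EL, plated 2000 cells/well in serum-free medium for 18-24 h at 37° C, then given PLA1 substrate (10 μM final) in HBSS/25 mM HEPES pH 7.2. Fluorescence (ex 490/em 515 nm) read kinetically for 30 min at 37° C; IC50 from slopes of linear regression over 480-1500 s.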

For experiment [2], the target named is T2, human endothelial lipase (EL) (Homo sapiens, UniProt Q9Y5X9).
T2 construct: host or cells: cells expressing human endothelial lipase
T2 sequence (Q9Y5X9 21-500): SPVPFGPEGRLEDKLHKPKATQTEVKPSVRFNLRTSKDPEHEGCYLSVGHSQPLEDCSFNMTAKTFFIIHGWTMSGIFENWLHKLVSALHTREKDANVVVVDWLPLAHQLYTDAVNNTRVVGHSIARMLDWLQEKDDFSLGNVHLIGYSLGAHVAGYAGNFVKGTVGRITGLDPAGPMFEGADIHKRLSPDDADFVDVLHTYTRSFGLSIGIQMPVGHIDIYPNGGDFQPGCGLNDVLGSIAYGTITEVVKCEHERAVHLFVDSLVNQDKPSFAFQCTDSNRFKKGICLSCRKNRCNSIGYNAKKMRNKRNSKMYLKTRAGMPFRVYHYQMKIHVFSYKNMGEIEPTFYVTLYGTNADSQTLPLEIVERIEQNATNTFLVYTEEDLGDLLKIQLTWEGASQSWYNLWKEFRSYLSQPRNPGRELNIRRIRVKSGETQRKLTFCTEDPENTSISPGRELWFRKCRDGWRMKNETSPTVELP
Put plainly: Endothelial Lipase Assay, cell surface lipase activity (human). The experiment is classed as cell-based. As to conditions: cells expressing human EL, PLA1 substrate 10 μM, fluorescence reaction rate; several values in a cell are repeat determinations. In outline: as §1

As usually defined, the IC50 is the concentration at which inhibition is half-maximal. High values mean weaker potency, low ones greater potency.

Values joined by “and” are separate entries in the source; they are usually repeats but may differ in a detail not shown here. Equal values may be shown once.

`O=C(CCCCCCc1ccccc1)C(=O)NCc1nnc(-c2ccccc2F)o1` [Compound 12]: the IC50 in experiment [1] is 1760 nM; in experiment [2], 2100 nM.
For `O=C(CCCCCCc1ccccc1)C(=O)NCc1nnc(-c2ccc(OCc3cccc(C(=O)O)c3)cc2)o1` [Compound 126], in that order: 242 nM and 398 nM.
For `O=C(CCCCCOc1cccc(F)c1)C(=O)NCc1nnc(-c2ccc3c(c2)Oc2ccccc2O3)o1` [Compound 62], in that order: 2720 nM and 5200 nM.
For `O=C(CCCCCCc1ccccc1)C(=O)NCc1nnc(-c2ccc(OCc3cccc(Cl)n3)cc2)s1` [Compound 164], in that order: 232 nM and 751 nM.
As to `O=C(CCCCCCc1cccc(OC(F)(F)F)c1)C(=O)NCc1nnc(-c2ccccc2)o1` [Compound 49], the IC50 in experiment [1] was found to be 312 nM; in experiment [2], 561 nM.
In the same order, the values of `O=C(CCCCCc1ccccc1)C(=O)NCc1nnc(-c2ccc3ccccc3c2)o1` [Compound 34] are 473 nM and 904 nM.
On to `N#Cc1ccc(C#CCCCCC(=O)C(=O)NCc2nnc(-c3ccccc3)o2)cc1` [Compound 45], for which the IC50 in experiment [1] amounted to 2410 nM; in experiment [2] it was 3470 nM.
`O=C(CCCCCCc1ccccc1)C(=O)NCc1nnc(-c2ccc(OCc3cc(F)cc(F)c3)cc2)s1` [Compound 146]: the IC50 turned out to be 224 nM in experiment [1] and 2320 nM in experiment [2].
`O=C(CCCCCOc1ccccc1)C(=O)NCc1nnc(-c2ccc(Oc3ccccc3)cc2)o1` [Compound 52]: the IC50 amounted to 1800 nM in experiment [1] and 2610 nM in experiment [2].
In the same order, the values of `O=C(CCCCCOc1cccc(F)c1)C(=O)NCc1nnc(-c2cccc(Oc3ccccc3)c2)o1` [Compound 56] are 2290 nM and 3250 nM.
In the same order, the values of `O=C(CCCCCOc1cccc(F)c1)C(=O)NCc1nnc(-c2ccccc2)o1` [Compound 53] are 5910 nM and 4740 nM.
Turning to `O=C(CCCCCCc1ccccc1)C(=O)NCc1nnc(-c2ccc(OCc3cccnc3)cc2)s1` [Compound 138], the IC50 is 58 nM and 79 nM in experiment [1]; 55 nM and 108 nM in experiment [2].
As to `O=C(CCCCCOc1ccc(F)cc1F)C(=O)NCc1nnc(-c2ccc(OCc3ccccc3)cc2)o1` [Compound 99], the figures for the IC50 in experiment [1] and in experiment [2] were 1050 nM and 2150 nM, respectively.
In the same order, the values of `CC(C)(C)OC(=O)c1cccc(COc2ccc(-c3nnc(CNC(=O)C(=O)CCCCCCc4ccccc4)o3)cc2)c1` [Compound 125] are 993 nM and 2580 nM.
For `O=C(CCCCCc1ccccc1)C(=O)NCc1nnc(-c2ccccc2)o1` [Compound 33], in that order: 3350 nM and 3760 nM.
In the case of `Cc1ncsc1CCCCCCC(=O)C(=O)NCc1nnc(-c2ccc(OCc3ccncc3)cc2)s1` [Compound 166], the results for the IC50 in experiment [1] and in experiment [2] were 479 nM and 809 nM, respectively.
With `O=C(CCCCCOc1c(F)cccc1F)C(=O)NCc1nnc(-c2ccc(OCc3ccccc3)cc2)o1` [Compound 101], the IC50 in experiment [1] turned out to be 19900 nM; in experiment [2], 5480 nM.
For `COC(=O)c1ccc(COc2ccc(-c3nnc(CNC(=O)C(=O)CCCCCCc4ccccc4)s3)cc2)o1` [Compound 141], in that order: 45 nM and 101 nM.
Regarding `O=C(CCCCCCc1ccccc1)C(=O)NCc1nnc(-c2ccc(Oc3ccccc3)cc2)o1` [Compound 179], the 50% inhibitory concentration (IC50) in experiment [1] turned out to be 135 nM; in experiment [2] it was 247 nM.
In the same order, the values of `O=C(CCCCCCc1ccccc1)C(=O)NCc1nnc(-c2ccc(OCc3ccncc3)cc2)s1` [Compound 140, 2-oxo-8-phenyl-N-((5-(4-(pyridin-4-ylmethoxy)phenyl)-1,3,4-thiadiazol-2-yl)methyl)octanamide] are 29 nM and 32 nM.
In the same order, the values of `O=C(CCCCCCc1ccccc1F)C(=O)NCc1nnc(-c2ccccc2)o1` [Compound 51] are 802 nM and 607 nM.
In the same order, the values of `O=C(CCCCCCc1ccccc1)C(=O)NCc1nnc(-c2ccc(-c3ccccc3)cc2)o1` [Compound 17] are 1880 nM and 3360 nM.
Regarding `COc1cccc(CCCCCCC(=O)C(=O)NCc2nnc(-c3ccc(C)cc3)o2)c1` [Compound 32], the figures for the IC50 in experiment [1] and in experiment [2] were 165 nM and 213 nM, respectively.
`COc1cccc(OCCCCCC(=O)C(=O)NCc2nnc(-c3ccc(Oc4ccccc4)cc3)o2)c1` [Compound 65]: the results for the half-maximal inhibitory concentration (IC50) in experiment [1] and in experiment [2] were 793 nM and 872 nM, respectively.
In the same order, the values of `O=C(CCCCCCc1ccccc1)C(=O)NCc1nnc(-c2ccc3c(=O)n4c(nc3c2)CCC4)o1` [Compound 19] are 3050 nM and 5380 nM.
For `O=C(CCCCCCc1ccc(C(F)(F)F)nc1)C(=O)NCc1nnc(-c2ccc(Oc3ccccc3)cc2)o1` [Compound 136], in that order: 406 nM and 595 nM.
As to `O=C(CCCCCCc1ccccc1)C(=O)NCc1nnc(-c2ccc(OCc3cc(F)cc(F)c3)cc2)o1` [Compound 90], the IC50 in experiment [1] is 80 nM and 159 nM; in experiment [2] it was 548 nM and 188 nM.
Take `O=C(CCCCCCc1ccccc1)C(=O)NCc1nnc(-c2ccc(OCc3ccncc3F)cc2)s1` [Compound 161]: the IC50 in experiment [1] was 37 nM; in experiment [2], 93 nM.
For the compound `O=C(CCCCCCc1ccccc1)C(=O)NCc1nnc(-c2ccc(OCc3cccc(F)n3)cc2)s1` [Compound 151], the results for the IC50 in experiment [1] and in experiment [2] were 661 nM and 712 nM, respectively.
For `Cc1ccc(-c2nnc(CNC(=O)C(=O)CCCCCCc3ccccc3)o2)cc1` [Compound 25], the IC50 in experiment [1] is 333 nM and 235 nM and 269 nM; in experiment [2], 353 nM and 319 nM and 468 nM.
In the case of `Cc1ccc(-c2nnc(CNC(=O)C(=O)CCCCCc3ccccc3)o2)cc1` [Compound 35], the IC50 was found to be 994 nM in experiment [1] and 1130 nM in experiment [2].
For the compound `O=C(CCCCCCc1ccccc1)C(=O)NCc1nnc(-c2ccc(C(F)(F)F)cc2)o1` [Compound 22], the IC50 in experiment [1] was 435 nM and 396 nM; in experiment [2], 268 nM and 552 nM.
Regarding `O=C(CCCCCOc1cccc(F)c1)C(=O)NCc1nnc(-c2ccc(Oc3cccc(Cl)c3)cc2)o1` [Compound 67], the IC50 in experiment [1] stood at 648 nM; in experiment [2] it was 640 nM.
For `O=C(CCCCCCc1ccccc1)C(=O)NCc1nnc(-c2ccc(OCc3ccncn3)cc2)o1` [Compound 107], in that order: 216 nM and 345 nM.
On to `O=C(CCCCCCc1ccccc1)C(=O)NCc1nnc(-c2ccccc2)s1` [Compound 74], for which the IC50 in experiment [1] worked out at 436 nM; in experiment [2], 219 nM.
For `O=C(CCCCCCc1ccccc1)C(=O)NCc1nnc(-c2ccc(OCc3ccc(Cl)cc3)cc2)o1` [Compound 77], in that order: 33300 nM and 33300 nM.
Regarding `O=C(CCCCCCc1ccccc1)C(=O)NCc1nnc(-c2ccc(NCc3ccccc3)cc2)o1` [Compound 116], the values for the IC50 in experiment [1] and in experiment [2] were 289 nM and 325 nM, respectively.
For `CN(Cc1ccc(F)c(F)c1)c1ccc(-c2nnc(CNC(=O)C(=O)CCCCCCc3ccccc3)o2)cc1` [Compound 110], in that order: 346 nM and 677 nM.
In the same order, the values of `O=C(CCCCCCc1ccc(F)nc1)C(=O)NCc1nnc(-c2ccc(OCc3ccnc(F)c3)cc2)s1` [Compound 168] are 64 nM and 107 nM.
Consider `O=C(CCCCCCc1ccc(F)nc1)C(=O)NCc1nnc(-c2ccc(OCc3cccc(F)c3)cc2)s1` [Compound 165], for which the IC50 in experiment [1] and in experiment [2] was 48 nM in each case.
As to `N#Cc1cccc(COc2ccc(-c3nnc(CNC(=O)C(=O)CCCCCCc4ccccc4)o3)cc2)c1` [Compound 117], the values for the IC50 in experiment [1] and in experiment [2] were 50 nM and 78 nM, respectively.
In the same order, the values of `O=C(CCCCCCc1ccccc1)C(=O)NCc1nnc(-c2ccc(Oc3ccc(F)cc3)cc2)o1` [Compound 106] are 298 nM and 746 nM.

These data come from patent US8476302B2, “α-ketoamide derivatives useful endothelial lipase inhibitors” (Janssen Pharmaceutica N.V., priority 2010, dated 2013).
